Results taken from patent US8802597B2, “Herbicidal pyrimidines” (E I du Pont de Nemours and Company, priority 2003, dated 2014).

Experiments:
Format in all cases: in vivo
[1] = system: Canada thistle (Cirsium arvense); experiment: Test L field study, Compound 1 and nicosulfuron; conditions: Compound 1 125 g a.i./ha, approximately 56 days after treatment
From the text: (§1) This field study included treatments that consisted of Compound 1 and nicosulfuron alone and in combination on Canada thistle (Cirsium arvense) and daisy fleabane (Erigeron spp.). The plants ranged from 20 to 30 cm in height at the time of application during the month of May in the vicinity of Newark, Del. Compound 1 was formulated as a wettable powder containing 25% active ingredient by weight. Nicosulfuron was in the form of Accent® Herbicide, a water-dispersible granule formulation containing 75% active ingredient by weight. The formulations were dispersed in water in the sprayer tank before treatment. The treatments were made using a backpack sprayer calibrated to deliver 24 gallons per acre (224 L per hectare) to a 10 ft×30 ft (3 m×9 m) plot. Each treatment was replicated two times. The effects on the plants approximately 56 days after treatment were visually compared to untreated controls. Plant response ratings were calculated as the means of the two replicates, based on a scale of 0 to 100 where 0 is no effect and 100 is complete control. Colby's Equation was used to determine the herbicidal effects expected from the mixture.

[2] = system: daisy fleabane (Erigeron spp.); experiment: Test L field study, Compound 1 and nicosulfuron; conditions: Compound 1 125 g a.i./ha, approximately 56 days after treatment
From the text: as §1

[3] = system: ducksalad (HETLI; Heteranthera limosa); experiment: Test J mixtures of compound 58 with azimsulfuron, flooded paddy; conditions: 21 days, scale 0-100
From the text: This test evaluated the effect of mixtures of compound 58 with azimsulfuron on several plant species. Three plastic pots (ca. 16-cm diameter) per rate were partially filled with sterilized Tama silt loam soil comprising a 35:50:15 ratio of sand, silt and clay and 2.6% organic matter. Separate plantings for each of the three pots were as follows. Seeds from the U.S. of ducksalad (HETLI; Heteranthera limosa), smallflower umbrella sedge (CYPDI; Cyperus difformis) and purple redstem (AMMCO; Ammannia coccinea), were planted into one 16-cm pot for each rate. Seeds from the U.S. of bearded sprangletop (LEFUF; Leptochloa fusca ssp. fascicularis), one stand of 9 or 10 water-seeded rice seedlings (ORYSW; Oryza sativa cv. ‘Japonica-M202’), and one stand of 6 transplanted rice seedlings (ORYSP; Oryza sativa cv. ‘Japonica-M202’) were planted into one 16-cm pot for each rate. Seeds from the U.S. of barnyardgrass (ECHCG; Echinochloa crus-galli), late watergrass (ECOR2; Echinochloa oryzicola), early watergrass (ECHOR; Echinochloa oryzoides) and junglerice (ECHCO; Echinochloa colona) were planted into one 16-cm pot for each rate. Plantings were sequential so that crop and weed species were at the 2.0 to 2.5-leaf stage at time of treatment.
Potted plants were grown in a greenhouse with day/night temperature settings of 29.5/26.7° C., and supplemental balanced lighting was provided to maintain a 16-hour photoperiod. Test pots were maintained in the greenhouse until test completion.
At time of treatment, test pots were flooded to 3 cm above the soil surface and then treated by application directly to the paddy water of test compounds formulated in a non-phytotoxic solvent mixture which included a surfactant. The pots were maintained at the 3-cm water depth for the duration of the test. Treatments consisted of compound 58 and azimsulfuron alone and in combination. Effects of treatments on rice and weeds were visually evaluated by comparison to untreated controls after 21 days. Plant response ratings were calculated as the means of the three replicates and are summarized in Table J. The ratings are based on a scale of 0 to 100 where 0 is no effect and 100 is complete control. A dash (-) response means no test result. Colby's Equation was used to determine the herbicidal effects expected from the mixtures.

Row | Structure (SMILES) | Obsd. observed effect (0 to 100 scale) [1] | Obsd. observed effect (0 to 100 scale) [2] | HETLI Obsd. ([3]; Cmpd 58 16 g a.i./ha alone) | HETLI Obsd. ([3]; Cmpd 58 32 g a.i./ha alone) | HETLI Obsd. ([3]; Cmpd 58 64 g a.i./ha alone)
1 | CCOC(=O)c1nc(C2CC2)nc(N)c1Br [Compound 1, ethyl 6-amino-5-bromo-2-cyclopropyl-4-pyrimidinecarboxylate] | 73 | 53 | – | – | –
2 | COC(=O)c1nc(-c2ccc(Cl)cc2)nc(N)c1Cl [Compound 58, methyl 6-amino-5-chloro-2-(4-chlorophenyl)-4-pyrimidinecarboxylate] | – | – | 100 | 100 | 100
